Values of other authors as cited in article PMC11320730, “5-Methoxy-2-aminoindane Reverses Diet-Induced Obesity and Improves Metabolic Parameters in Mice: A Potential New Class of Antiobesity Therapeutics” (ACS Pharmacology & Translational Science, 2024).

Columns and labels:
[1] = tested on: rats fed a cafeteria diet; design: method as in PMID 35664477; settings: cited from earlier work
[2] = tested on: lean mice, DIO mice, ob/ob mice and melanocortin-receptor 4 knockout mice; design: method as in PMID 35953488; settings: ob/ob and melanocortin-receptor 4 knockout mice; cited from earlier work
[3] = tested on: adult female participants with anorexia nervosa; settings: single 25 mg dose with psychological support, 10 adult female participants; cited from earlier work

CN(C)CCc1c[nH]c2cccc(OP(=O)(O)O)c12 [psilocybin]
weight loss ([1]; at the given doses): no effect | weight gain [1]: reduced | body weight [2]: no impact | food intake [2]: no impact | safety and tolerability (adverse events) [3]: no clinically significant adverse events observed
